“And” between values parts separate entries of the source, which are not always exact repeats. Equal entries are not always repeated.
System: SW1271 complex spheroids with HUVEC/MSC, growth, % test/control
Assay: Anticancer human tumor SW1271 cell line growth inhibition [AhR];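 also: spheroids exposed to agents for 7 days before readout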
Conditions: for viability, T/C: stronger effect = lower value
Outline: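 Spheroids combined tumor cells with HUVEC endothelial cells and human MSCs as stroma. AhR antagonists were paired with standard or investigational drugs, each dosed in half-log steps down from near clinical Cmax, or from 10 microM where Cmax was unknown.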

[1] = curve of first compound, second compound 0.1 µM
[2] = curve of first compound, second compound 0.316 µM
[3] = curve of first compound, second compound 1 µM
[4] = curve of first compound, second compound 3.16 µM
[5] = curve of first compound, second compound 10 µM
[6] = second compound 0.1 µM, first compound 0.0316 µM
[7] = second compound 0.1 µM, first compound 0.1 µM
[8] = second compound 0.1 µM, first compound 0.316 µM
[9] = second compound 0.1 µM, first compound 1 µM
[10] = second compound 0.1 µM, first compound 3.16 µM
[11] = second compound 0.1 µM, first compound 10 µM
[12] = second compound 0.316 µM, first compound 0.0316 µM
[13] = second compound 0.316 µM, first compound 0.1 µM
[14] = second compound 0.316 µM, first compound 0.316 µM
[15] = second compound 0.316 µM, first compound 1 µM
[16] = second compound 0.316 µM, first compound 3.16 µM
[17] = second compound 0.316 µM, first compound 10 µM
[18] = second compound 1 µM, first compound 0.0316 µM
[19] = second compound 1 µM, first compound 0.1 µM
[20] = second compound 1 µM, first compound 0.316 µM
[21] = second compound 1 µM, first compound 1 µM
[22] = second compound 1 µM, first compound 3.16 µM
[23] = second compound 1 µM, first compound 10 µM
[24] = second compound 3.16 µM, first compound 0.0316 µM
[25] = second compound 3.16 µM, first compound 0.1 µM
[26] = second compound 3.16 µM, first compound 0.316 µM
[27] = second compound 3.16 µM, first compound 1 µM
[28] = second compound 3.16 µM, first compound 3.16 µM
[29] = second compound 3.16 µM, first compound 10 µM
[30] = second compound 10 µM, first compound 0.0316 µM
[31] = second compound 10 µM, first compound 0.1 µM
[32] = second compound 10 µM, first compound 0.316 µM
[33] = second compound 10 µM, first compound 1 µM
[34] = second compound 10 µM, first compound 3.16 µM
[35] = second compound 10 µM, first compound 10 µM

With CC(C)c1c(-c2ccccc2)nc2c(C#N)c[nH]n2c1=O + CC(CO)NC(=O)c1cc(-c2ccc(Cl)cc2)nn(-c2cnn(C)c2)c1=O the IC50 [1] was greater than 10 µM, the IC50 [2] was greater than 10 µM and the IC50 [3] was greater than 10 µM. For the same compound, the IC50 [4] was greater than 10 µM, the IC50 [5] was greater than 10 µM and the viability, T/C [6] was 88.4%. It also gave a viability, T/C [7] of 101%, a viability, T/C [8] of 106% and a viability, T/C [9] of 90.9%. For the same compound, the viability, T/C [10] was 95.7%, the viability, T/C [11] was 121% and the viability, T/C [12] was 88.7%. For the same compound, the viability, T/C [13] was 85.3%, the viability, T/C [14] was 91.4% and the viability, T/C [15] was 98.1%. The viability, T/C [16] was 93.8%, the viability, T/C [17] was 108% and the viability, T/C [18] was 78.7%. It also gave a viability, T/C [19] of 89.9%, a viability, T/C [20] of 86.4% and a viability, T/C [21] of 78.7%. For the same compound, the viability, T/C [22] was 107%, the viability, T/C [23] was 94.8% and the viability, T/C [24] was 95.7%. It also gave a viability, T/C [25] of 97.8%, a viability, T/C [26] of 80.1% and a viability, T/C [27] of 78%. For the same compound, the viability, T/C [28] was 82.8%, the viability, T/C [29] was 76.8% and the viability, T/C [30] was 71.8%. It also gave a viability, T/C [31] of 80.8%, a viability, T/C [32] of 67.8% and a viability, T/C [33] of 71.3%. The viability, T/C [34] was 62.9% and the viability, T/C [35] was 77.8%.

In the case of Cn1ncnc1C1c2n[nH]c(=O)c3cc(F)cc(c23)NC1c1ccc(F)cc1 (configuration not stated) + CC(CO)NC(=O)c1cc(-c2ccc(Cl)cc2)nn(-c2cnn(C)c2)c1=O, the IC50 [1] is reported as greater than 0.1 µM, the IC50 [2] is reported as greater than 0.1 µM and the IC50 [3] is reported as greater than 0.1 µM. The IC50 [4] was greater than 0.1 µM, the IC50 [5] was greater than 0.1 µM and the viability, T/C (second compound 0.1 µM, first compound 0.000316 µM) was 111%. The viability, T/C (second compound 0.1 µM, first compound 0.001 µM) was 104%, the viability, T/C (second compound 0.1 µM, first compound 0.00316 µM) was 95.8% and the viability, T/C (second compound 0.1 µM, first compound 0.01 µM) was 98%. It also gave a viability, T/C [6] of 84%, a viability, T/C [7] of 107% and a viability, T/C (second compound 0.316 µM, first compound 0.000316 µM) of 84.1%. It also gave a viability, T/C (second compound 0.316 µM, first compound 0.001 µM) of 87.1%, a viability, T/C (second compound 0.316 µM, first compound 0.00316 µM) of 104% and a viability, T/C (second compound 0.316 µM, first compound 0.01 µM) of 89%. The viability, T/C [12] was 85.2%, the viability, T/C [13] was 79.2% and the viability, T/C (second compound 1 µM, first compound 0.000316 µM) was 96.2%. The viability, T/C (second compound 1 µM, first compound 0.001 µM) was 101%, the viability, T/C (second compound 1 µM, first compound 0.00316 µM) was 73.7% and the viability, T/C (second compound 1 µM, first compound 0.01 µM) was 81.2%. The viability, T/C [18] was 74.1%, the viability, T/C [19] was 103% and the viability, T/C (second compound 3.16 µM, first compound 0.000316 µM) was 79.7%. For the same compound, the viability, T/C (second compound 3.16 µM, first compound 0.001 µM) was 73%, the viability, T/C (second compound 3.16 µM, first compound 0.00316 µM) was 71.4% and the viability, T/C (second compound 3.16 µM, first compound 0.01 µM) was 89.1%. It also gave a viability, T/C [24] of 84.5%, a viability, T/C [25] of 77.2% and a viability, T/C (second compound 10 µM, first compound 0.000316 µM) of 71.8%. For the same compound, the viability, T/C (second compound 10 µM, first compound 0.001 µM) was 74.6%, the viability, T/C (second compound 10 µM, first compound 0.00316 µM) was 61.4% and the viability, T/C (second compound 10 µM, first compound 0.01 µM) was 89.4%. For the same compound, the viability, T/C [30] was 75.9% and the viability, T/C [31] was 76.1%.

Compound Nc1ccccc1NC(=O)c1ccc(CNC(=O)OCc2cccnc2)cc1 + Cc1cncc(-c2nc(NCCc3c[nH]c4ccccc34)c3ncn(C(C)C)c3n2)c1 has an IC50 [1] of 1.89 µM, an IC50 [2] of 1.74 µM and an IC50 [3] of 2.49 µM. It also gave an IC50 [4] of 1.19 µM, an IC50 [5] of less than 0.0316 µM and a viability, T/C [6] of 94.7%. The viability, T/C [7] was 110%, the viability, T/C [8] was 95.5% and the viability, T/C [9] was 69.8%. The viability, T/C [10] was 34.3%, the viability, T/C [11] was 15.8% and the viability, T/C [12] was 109%. For the same compound, the viability, T/C [13] was 104%, the viability, T/C [14] was 97.4% and the viability, T/C [15] was 62.9%. The viability, T/C [16] was 35.5%, the viability, T/C [17] was 17% and the viability, T/C [18] was 121%. For the same compound, the viability, T/C [19] was 118%, the viability, T/C [20] was 88.9% and the viability, T/C [21] was 63.1%. It also gave a viability, T/C [22] of 51.9%, a viability, T/C [23] of 17.1% and a viability, T/C [24] of 121%. It also gave a viability, T/C [25] of 107%, a viability, T/C [26] of 112% and a viability, T/C [27] of 52.8%. It also gave a viability, T/C [28] of 36%, a viability, T/C [29] of 16.7% and a viability, T/C [30] of 44.2%. For the same compound, the viability, T/C [31] was 46.3%, the viability, T/C [32] was 35.3% and the viability, T/C [33] was 24%. For the same compound, the viability, T/C [34] was 18.3% and the viability, T/C [35] was 14.3%.

Nc1ccccc1NC(=O)c1ccc(CNC(=O)OCc2cccnc2)cc1 was tested, and the viability, T/C (compound 0.0316 µM) was 107% and 114% and 87.5%, the viability, T/C (compound 0.1 µM) was 112% and 89.2% and 77% and the viability, T/C (compound 0.316 µM) was 72.5% and 61% and 59.9%. For the same compound, the viability, T/C (compound 1 µM) was 62.2% and 60.4% and 45.5%, the viability, T/C (compound 3.16 µM) was 37.6% and 38.3% and 33.3% and the viability, T/C (compound 10 µM) was 10.4% and 14.2% and 7.86%. For the same compound, the IC50 (curve of compound) was 1.62 µM and 1.18 µM and 0.765 µM.

— PubChem BioAssay AID1919017 (Molecular Pharmacology Branch, DTP, NCI, 2023)
